{
  "source": "patent US6537974B2",
  "about": "“Method of treating arrhythmias” (CV Therapeutics, Inc., priority 2000, dated 2003)",
  "key": {"[1]": {"tested_on": "AV node (AH interval)", "experiment": "Electrophysiology study: single intravenous bolus of CVT-510, effect on AH interval, heart rate, blood pressure", "format": "in vivo, human", "method": "(§1) The effect of CVT-510 on prolongation of AH interval, a measure of an adenosine A1 mediated effect of CVT-510, and on the heart rate (sinus rate) of patients with PSVT was tested in patients undergoing a clinically indicated electrophysiology study. In the first study patients volunteers were administered a single bolus of. CVT-510. In the second study PSVT was induced in patients prior to the administration of CVT-510.\nAll antiarrhythmic agents, including digoxin, beta-blockers and calcium-channel blockers were discontinued for five half-lives prior to the study.\nPatients were excluded from the study if the PR interval was >200 ms or resting heart rate was <60 or >100/min. Other exclusion criteria included evidence of ventricular preexcitation, Class II-IV congestive heart failure or asthma. Patients were also required to have normal baseline electrophysiologic parameters, including a paced AV nodal Wenckebach cycle length 500 ms, an AH interval between 60 and 125 ms and an HV interval 35-55 ms. All patients were 18 years of age.\nQuadripolar catheters were introduced percutaneously and advanced under fluoroscopic guidance to the high right atrium and across the tricuspid annulus to record the His bundle potential. […] Data were stored on optical disk. All patients had continuous ECG and non-invasive blood pressure monitoring throughout the study.\nCardiac stimulation was performed with a programmable stimulator with an isolated constant-current source. Stimuli were delivered as rectangular pulses of 2 ms duration at four times diastolic threshold. The study design was open-label with dose escalation, with the latter determined by tolerability. A single intravenous bolus of CVT-510 was administered to each patient after baseline electrophysiologic measurements were made.\nAfter a bolus dose of CVT-510 was given, blood pressure, heart rate, 12-lead ECG and AH and HV intervals were recorded at 1, 5, 10, 15, 20 and 30 min and then every 15 min for up to 1 hour post-bolus or until the parameters returned to baseline. The AH and HV intervals were determined by measuring the last interval during a 15 beat drive at a paced cycle length of 600, 500 and 400 ms (unless precluded by pacing-induced AV nodal Wenckebach).\nAdministration of CVT-510 started at a dose of 0.3 μg/kg. Dose escalation proceeded with additional groups of patients receiving doses of 1, 3, 7.5, 10, 15 and 30 μg/kg based on tolerability and the absence of AV nodal Wenckebach or 3° AV block during sinus rhythm.\nData are expressed as mean ±SD. Based on the results of the normality test, a paired t-test or a non-parametric signed-rank test (SR) was used to determine the significance of CVT-510's effects on heart rate, blood pressure, ECG and AV nodal conduction times (AH and HV) for each dosing group (e.g., 0.3, 1.0, 3.0, 7.5, 10.0, 15.0 and 30.0 μg/kg). Similarly, analysis of variance (ANOVA) or the Kruskal-Wallis test (KW) was used to compare the AH intervals during sinus rhythm and atrial pacing at all doses. No adjustment for multiple comparisons were made, and a P value <0.05 were used to determine the significance of the differences between mean values."}, "[2]": {"tested_on": "patients with PSVT", "experiment": "Treatment of patients with induced PSVT with CVT-510 boluses: conversion to sinus rhythm", "format": "in vivo, human", "conditions": "for % conversion after Bolus 1 / % conversion after Bolus 2 / % cumulative conversion: patients with PSVT", "method": "as §1"}, "[3]": {"target": "T1, A1 adenosine receptor (Homo sapiens, UniProt P30542)", "T1 sequence (P30542 1-326)": "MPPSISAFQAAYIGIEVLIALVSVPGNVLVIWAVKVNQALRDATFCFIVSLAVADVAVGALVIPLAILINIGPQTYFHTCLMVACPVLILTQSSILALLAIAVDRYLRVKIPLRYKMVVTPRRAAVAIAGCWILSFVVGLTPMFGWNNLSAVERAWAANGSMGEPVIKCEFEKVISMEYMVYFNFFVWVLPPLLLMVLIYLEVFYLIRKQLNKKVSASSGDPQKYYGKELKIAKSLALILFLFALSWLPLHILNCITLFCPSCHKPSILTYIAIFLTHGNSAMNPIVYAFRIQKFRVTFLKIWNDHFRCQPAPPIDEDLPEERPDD", "experiment": "Specificity for the A1 adenosine receptor: CPX antagonism, left ventricular pressure"}, "[4]": {"conditions": "in vivo; cited from earlier work"}},
  "data": [
    {"compound": "OC[C@H]1O[C@@H](n2cnc3c(N[C@@H]4CCOC4)ncnc32)[C@H](O)[C@@H]1O", "note": "[CVT-510, 6-(3-(R)-aminotetrahydrofuranyl)purine riboside]", "values": [
      {"measurement": "effect on AV nodal conduction", "setting": "[1]; bolus doses 0.3-30 μg/kg, patients", "value": "slows AV nodal conduction in a dose-dependent manner"},
      {"measurement": "time of maximal effect on the AH interval after dosing", "setting": "[1]; dose of 7.5 μg/kg, human patients", "value": "one"},
      {"measurement": "half-life compared with adenosine", "setting": "[1]; in vivo", "value": "relatively long"},
      {"measurement": "effect on sinus rate", "setting": "[1]; patients", "value": "no effect"},
      {"measurement": "effect on systemic blood pressure", "setting": "[1]; patients", "value": "no effect"},
      {"measurement": "onset of action", "setting": "[1]; post-administration", "value": "≤ 1", "unit": "min"},
      {"measurement": "time by which effects were mostly eliminated", "setting": "[1]; post-administration", "value": "≤ 20", "unit": "min"},
      {"measurement": "% conversion after Bolus 1", "setting": "[2]; Dose Level 3 (n = 4)", "value": 75, "unit": "%"},
      {"measurement": "% conversion after Bolus 2", "setting": "[2]; Dose Level 3 (n = 4)", "value": 25, "unit": "%"},
      {"measurement": "% cumulative conversion", "setting": "[2]; Dose Level 3 (n = 4)", "value": 100, "unit": "%"},
      {"measurement": "% conversion after Bolus 1", "setting": "[2]; Dose Level 5 (n = 9)", "value": 78, "unit": "%"},
      {"measurement": "% conversion after Bolus 2", "setting": "[2]; Dose Level 5 (n = 9)", "value": 0, "unit": "%"},
      {"measurement": "% cumulative conversion", "setting": "[2]; Dose Level 5 (n = 9)", "value": 78, "unit": "%"},
      {"measurement": "% conversion after Bolus 1", "setting": "[2]; Dose Level 7.5 (n = 4)", "value": 100, "unit": "%"},
      {"measurement": "% conversion after Bolus 2", "setting": "[2]; Dose Level 7.5 (n = 4)", "value": 0, "unit": "%"},
      {"measurement": "% cumulative conversion", "setting": "[2]; Dose Level 7.5 (n = 4)", "value": 100, "unit": "%"},
      {"measurement": "% conversion after Bolus 1", "setting": "[2]; Dose Level 10 (n = 5)", "value": 90, "unit": "%"},
      {"measurement": "% conversion after Bolus 2", "setting": "[2]; Dose Level 10 (n = 5)", "value": 0, "unit": "%"},
      {"measurement": "% cumulative conversion", "setting": "[2]; Dose Level 10 (n = 5)", "value": 90, "unit": "%"},
      {"measurement": "% conversion after Bolus 1", "setting": "[2]; Dose Level 12.5 (n = 4)", "value": 75, "unit": "%"},
      {"measurement": "% conversion after Bolus 2", "setting": "[2]; Dose Level 12.5 (n = 4)", "value": 25, "unit": "%"},
      {"measurement": "% cumulative conversion", "setting": "[2]; Dose Level 12.5 (n = 4)", "value": 100, "unit": "%"},
      {"measurement": "% conversion after Bolus 1", "setting": "[2]; Dose Level 15 (n = 10)", "value": 80, "unit": "%"},
      {"measurement": "% conversion after Bolus 2", "setting": "[2]; Dose Level 15 (n = 10)", "value": 10, "unit": "%"},
      {"measurement": "% cumulative conversion", "setting": "[2]; Dose Level 15 (n = 10)", "value": 90, "unit": "%"},
      {"measurement": "HV prolongation", "setting": "[2]; at low concentrations", "value": "without causing"},
      {"measurement": "depressing sinus or AV nodal conduction after restoring SR", "setting": "[2]; at low concentrations", "value": "without causing"},
      {"measurement": "hypotension", "setting": "[2]; at low concentrations", "value": "without causing"},
      {"measurement": "termination of PSVT", "setting": "[2]; at low concentrations", "value": "rapidly terminates PSVT"},
      {"measurement": "effect on dpdt^−1 max", "setting": "[3]", "value": "no effect"},
      {"measurement": "effect on left ventricular pressure", "setting": "[3]", "value": "no effect"},
      {"measurement": "effects on the AV node in the presence of the selective A1 receptor antagonist CPX", "setting": "[3]; with CPX, effects on coronary conductance not abolished", "value": "completely abolished"}
    ]},
    {"compound": "C[C@H]1O[C@@H](O[C@H]2[C@@H](O)C[C@H](O[C@H]3[C@@H](O)C[C@H](O[C@H]4CC[C@@]5(C)[C@H](CC[C@@H]6[C@@H]5C[C@@H](O)[C@]5(C)[C@@H](C7=CC(=O)OC7)CC[C@]65O)C4)O[C@@H]3C)O[C@@H]2C)C[C@H](O)[C@@H]1O", "note": "[Digoxin]", "values": [
      {"measurement": "delayed onset of action", "setting": "[4]", "value": "about 30 min"},
      {"measurement": "time to peak effects after administration", "setting": "[4]", "value": "3 to 4", "unit": "h"}
    ]}
  ]
}
